The values below come from US6696492B1, “Use of L carnitine and its alkanoyl dervatives for the preparation of a medicament useful for the treatment of patients suffering from diabetic and/or dysmetabolic nephropathy” (Sigma-Tau Industrie Farmaceutiche Riunite S.p.A., priority 1999, dated 2004).

For data set [1] the following is noted: renally insufficient children; cited from earlier work.
Data set [2] is described as follows: Clinical physiology study: forearm blood flow by plethysmography, intravenous infusion of PLC. The settings on record: 6 healthy volunteers, after 60-minute intravenous infusion at 12 micrograms per minute. Type of data set: in vivo, human. The procedure:
A clinical physiology study was conducted in human subjects for the purpose of establishing whether PLC was also capable of exerting a vasodilating action at the microcirculatory level. […] This study was conducted in 6 healthy volunteers, whose overall blood flow was measured by plethysmography in the forearm, both in basal conditions and after 60-minute intravenous infusion of PLC at the dose of 12 micrograms per minute. The choice of dose to be administered was based on kinetics calculations, in order to try and achieve a steady state plasma concentration of PLC similar to the one obtained with chronic oral administration of 2 grams of PLC.

Data set [3] can be described thus: Clinical study: forearm blood flow by plethysmography, local intra-arterial PLC, then nitro-L-arginine. The note with it: 8 healthy volunteers, local intra-arterial administration. Format: in vivo, human.
Data set [4] is described as follows: Clinical pilot study, type 2 diabetes mellitus and diabetic nephropathy in the microalbuminuria stage. Format: in vivo, human. The note with it: after 6 months' treatment, 1.5 grams/day oral; before treatment 37.8±4.6; p<0.01; 8 patients. As to the method:
(§1) Lastly, a clinical pilot study has been conducted in a small patient sample, consisting of 8 patients suffering from type 2 diabetes mellitus and diabetic nephropathy in the microalbuminuria stage without evidence of frank renal insufficiency and 10 patients suffering from type 2 diabetes mellitus and renal insufficiency (serum creatinine>2 mg/dl and creatinine clearance <40 ml/min).
(§2) Both patient groups were treated with 1.5 grams/day of PLC administered in three distinct doses of 500 mg at three different times of day (1 tablet after breakfast, lunch and dinner) for a total period of 6 months.

The nature of data set [5]: Clinical pilot study, type 2 diabetes mellitus and renal insufficiency. Type of data set: in vivo, human. The note with it: after 6 months' treatment, 1.5 grams/day oral. As to the method: as §1, §2
Data set [6] can be described thus: Tolerability in patients with diabetes mellitus and peripheral arteriopathy. Type of data set: in vivo, human. The settings on record: 6 months' treatment.
The conditions of data set [7]: organ ischaemia and reperfusion; cited from earlier work.
For data set [8] the following is noted: cited from earlier work.

Consider `C[N+](C)(C)C[C@H](O)CC(=O)[O-]` [L-carnitine], for which the serum triglyceride levels entry in data set [1] was “reduces the serum triglyceride levels”.

Turning to `CCC(=O)O[C@H](CC(=O)[O-])C[N+](C)(C)C` [PLC, propionyl L-carnitine], the “increase in blood flow as compared to resting basal flow” value in data set [2] was “approximately 25%”. In addition, the vasodilatory action entry in data set [3] is “confirmed the vasodilatory action”. Moreover, the “urinary microalbumin excretion rate” value in data set [4] came to 21.3±5.1 mg/g creatinine. Besides, the 24-h proteinuria in data set [5] (before treatment 6.2±2.3, p<0.01, 10 patients) is reported as 3.1±1.2 g/24 h. The compound further gave a creatinine clearance in data set [5] (before treatment 34.6±4.6, spread ±7.3) of 42.7 mL/min. The compound also yielded an LDL in data set [5] (before treatment 169±15) of 158 ± 10 mg/dL. Besides, the triglycerides in data set [5] (before treatment 217±75 mg/dl) is 192±62 m/dl. The “side effects in man” value in data set [6] was “no severe unwanted effects”. For the same compound, the “damage induced by the ischaemia” value in data set [7] is recorded as “capable of reducing the damage induced by the ischaemia”. Also, the “functional capability and perfusion of the peripheral nerves” value in data set [8] (streptozocin-diabetic rats (Hotta et al. 1996)) is given as “capable of improving”. Besides, the “plasma lipid levels (total cholesterol, triglycerides, LDL)” value in data set [8] (streptozocin-diabetic rats) is given as “reduced”.
